Experimental data taken from ChEMBL document CHEMBL4507320, “Data for DCP probe NVS-MALT1” (2021).
The source made the active and inactive calls. No cut-off for these calls is given here.

Assays:
[1] = target: Myosin-IIIa (Homo sapiens) (UniProt Q8NEV4); details: Compound concentration 1000.0 nM
[2] = target: STE20/SPS1-related proline-alanine-rich protein kinase (Homo sapiens) (UniProt Q9UEW8); details: Compound concentration 1000.0 nM
[3] = target: Serine/threonine-protein kinase pim-1 (Homo sapiens) (UniProt P11309); details: Compound concentration 1000.0 nM
[4] = target: Tyrosine-protein kinase Srms (Homo sapiens) (UniProt Q9H3Y6); details: Compound concentration 1000.0 nM
[5] = target: Ephrin type-A receptor 8 (Homo sapiens) (UniProt P29322); details: Compound concentration 1000.0 nM
[6] = target: Ribosomal protein S6 kinase alpha-5 (Homo sapiens) (UniProt O75582); details: Compound concentration 1000.0 nM
[7] = target: Glycogen synthase kinase-3 beta (Homo sapiens) (UniProt P49841); details: Compound concentration 1000.0 nM
[8] = tested on: Receptor-type tyrosine-protein kinase FLT3 (Homo sapiens), P36888 [D835H]; details: Compound concentration 1000.0 nM
[9] = target: Platelet-derived growth factor receptor alpha (Homo sapiens) (UniProt P16234); details: Compound concentration 1000.0 nM
[10] = target: Serine/threonine-protein kinase PAK 1 (Homo sapiens) (UniProt Q13153); details: Compound concentration 1000.0 nM
[11] = target: Serine/threonine-protein kinase tousled-like 2 (Homo sapiens) (UniProt Q86UE8); details: Compound concentration 1000.0 nM
[12] = target: D(1B) dopamine receptor (Homo sapiens) (UniProt P21918); details: Compound concentration 10.0 uM
[13] = target: MAP kinase-activated protein kinase 5 (Homo sapiens) (UniProt Q8IW41); details: Compound concentration 1000.0 nM
[14] = target: Protein-tyrosine kinase 2-beta (Homo sapiens) (UniProt Q14289); details: Compound concentration 1000.0 nM
[15] = target: cGMP-dependent protein kinase 2 (Homo sapiens) (UniProt Q13237); details: Compound concentration 1000.0 nM
[16] = target: Cyclin-dependent kinase 18 (Homo sapiens) (UniProt Q07002); details: Compound concentration 1000.0 nM
[17] = target: MAP kinase-interacting serine/threonine-protein kinase 1 (Homo sapiens) (UniProt Q9BUB5); details: Compound concentration 1000.0 nM
[18] = target: Dual specificity tyrosine-phosphorylation-regulated kinase 2 (Homo sapiens) (UniProt Q92630); details: Compound concentration 1000.0 nM
[19] = target: Wee1-like protein kinase (Homo sapiens) (UniProt P30291); details: Compound concentration 1000.0 nM
[20] = target: Receptor-type tyrosine-protein kinase FLT3 (Homo sapiens, UniProt P36888); details: Compound concentration 1000.0 nM
[21] = target: Calcium/calmodulin-dependent protein kinase kinase 1 (Homo sapiens) (UniProt Q8N5S9); details: Compound concentration 1000.0 nM
[22] = target: Calcium/calmodulin-dependent protein kinase type 1D (Homo sapiens) (UniProt Q8IU85); details: Compound concentration 1000.0 nM
[23] = target: Serine/threonine-protein kinase WNK2 (Homo sapiens) (UniProt Q9Y3S1); details: Compound concentration 1000.0 nM
[24] = target: Tyrosine-protein kinase Mer (Homo sapiens) (UniProt Q12866); details: Compound concentration 1000.0 nM
[25] = target: Mitogen-activated protein kinase 8 (Homo sapiens) (UniProt P45983); details: Compound concentration 1000.0 nM
[26] = target: 5-hydroxytryptamine receptor 1D (Homo sapiens) (UniProt P28221); details: Compound concentration 10.0 uM
[27] = target: 5'-AMP-activated protein kinase catalytic subunit alpha-1 (Homo sapiens) (UniProt Q13131); details: Compound concentration 1000.0 nM
[28] = target: Serine/threonine-protein kinase NIM1 (Homo sapiens) (UniProt Q8IY84); details: Compound concentration 1000.0 nM
[29] = target: Mitogen-activated protein kinase 7 (Homo sapiens) (UniProt Q13164); details: Compound concentration 1000.0 nM
[30] = target: Cyclin-dependent kinase 2 homolog (Plasmodium falciparum (isolate 3D7)) (UniProt P61075); details: Compound concentration 1000.0 nM
[31] = tested on: Epidermal growth factor receptor (Homo sapiens), P00533 [UNDEFINED MUTATION]; details: Compound concentration 1000.0 nM
[32] = target: T1, Mucosa-associated lymphoid tissue lymphoma translocation protein 1 (Homo sapiens, UniProt Q9UDY8); test: Jurkat IL-2 (IL2-RGA PMA + anti-CD28); type: cell-based
T1 sequence (Q9UDY8 whole entry): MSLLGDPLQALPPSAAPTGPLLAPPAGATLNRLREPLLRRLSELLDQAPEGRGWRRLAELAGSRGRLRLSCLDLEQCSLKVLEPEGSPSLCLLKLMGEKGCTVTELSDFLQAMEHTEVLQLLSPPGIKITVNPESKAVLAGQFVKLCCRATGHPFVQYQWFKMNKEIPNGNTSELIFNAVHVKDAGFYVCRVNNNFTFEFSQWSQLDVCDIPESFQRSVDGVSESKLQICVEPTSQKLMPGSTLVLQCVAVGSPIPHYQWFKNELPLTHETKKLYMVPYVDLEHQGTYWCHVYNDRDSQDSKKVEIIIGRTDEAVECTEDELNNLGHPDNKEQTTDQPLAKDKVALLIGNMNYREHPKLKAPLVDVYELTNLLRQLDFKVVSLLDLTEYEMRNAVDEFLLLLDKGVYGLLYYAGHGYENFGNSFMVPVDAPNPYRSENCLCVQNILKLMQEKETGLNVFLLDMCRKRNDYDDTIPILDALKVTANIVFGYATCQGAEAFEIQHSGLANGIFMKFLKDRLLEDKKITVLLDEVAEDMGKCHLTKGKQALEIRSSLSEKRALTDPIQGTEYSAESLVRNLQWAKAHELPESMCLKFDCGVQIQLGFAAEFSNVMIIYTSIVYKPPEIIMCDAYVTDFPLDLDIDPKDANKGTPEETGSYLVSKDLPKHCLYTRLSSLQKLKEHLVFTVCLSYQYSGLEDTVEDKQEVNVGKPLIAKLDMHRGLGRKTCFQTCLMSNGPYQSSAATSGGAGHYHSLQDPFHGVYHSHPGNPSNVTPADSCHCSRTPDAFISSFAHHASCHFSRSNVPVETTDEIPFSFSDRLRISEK

[33] = target: LIM domain kinase 2 (Homo sapiens) (UniProt P53671); details: Compound concentration 1000.0 nM
[34] = target: SNF-related serine/threonine-protein kinase (Homo sapiens) (UniProt Q9NRH2); details: Compound concentration 1000.0 nM

MAP kinase-activated protein kinase 5 (Homo sapiens), sequence (Q8IW41 whole entry): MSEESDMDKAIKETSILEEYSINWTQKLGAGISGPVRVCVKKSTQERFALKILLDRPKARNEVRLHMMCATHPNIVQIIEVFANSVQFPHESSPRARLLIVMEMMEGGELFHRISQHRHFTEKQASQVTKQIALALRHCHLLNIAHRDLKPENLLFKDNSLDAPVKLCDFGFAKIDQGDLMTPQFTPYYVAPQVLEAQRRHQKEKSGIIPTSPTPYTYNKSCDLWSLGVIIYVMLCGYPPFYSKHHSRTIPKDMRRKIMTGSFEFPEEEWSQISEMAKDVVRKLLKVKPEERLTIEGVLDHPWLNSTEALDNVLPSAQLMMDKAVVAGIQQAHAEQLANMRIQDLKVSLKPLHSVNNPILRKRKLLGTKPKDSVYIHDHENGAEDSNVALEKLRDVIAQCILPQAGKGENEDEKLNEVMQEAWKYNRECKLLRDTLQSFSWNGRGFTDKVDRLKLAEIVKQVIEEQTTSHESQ
Serine/threonine-protein kinase PAK 1 (Homo sapiens), sequence (Q13153 whole entry): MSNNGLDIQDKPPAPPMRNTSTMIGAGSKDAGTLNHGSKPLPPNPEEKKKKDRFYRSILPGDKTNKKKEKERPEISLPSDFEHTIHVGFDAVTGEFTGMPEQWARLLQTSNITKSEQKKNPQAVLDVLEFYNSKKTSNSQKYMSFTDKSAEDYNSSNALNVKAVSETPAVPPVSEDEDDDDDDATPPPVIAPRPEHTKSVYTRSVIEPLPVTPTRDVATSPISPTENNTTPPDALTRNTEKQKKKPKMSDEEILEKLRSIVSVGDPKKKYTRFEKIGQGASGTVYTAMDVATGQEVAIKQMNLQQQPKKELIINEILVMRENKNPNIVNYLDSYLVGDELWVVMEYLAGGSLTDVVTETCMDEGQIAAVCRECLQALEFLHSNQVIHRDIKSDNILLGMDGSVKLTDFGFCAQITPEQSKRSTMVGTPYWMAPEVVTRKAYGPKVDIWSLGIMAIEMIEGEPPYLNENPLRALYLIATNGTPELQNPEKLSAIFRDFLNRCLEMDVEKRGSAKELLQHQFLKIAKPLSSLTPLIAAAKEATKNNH
Ephrin type-A receptor 8 (Homo sapiens), sequence (P29322 whole entry): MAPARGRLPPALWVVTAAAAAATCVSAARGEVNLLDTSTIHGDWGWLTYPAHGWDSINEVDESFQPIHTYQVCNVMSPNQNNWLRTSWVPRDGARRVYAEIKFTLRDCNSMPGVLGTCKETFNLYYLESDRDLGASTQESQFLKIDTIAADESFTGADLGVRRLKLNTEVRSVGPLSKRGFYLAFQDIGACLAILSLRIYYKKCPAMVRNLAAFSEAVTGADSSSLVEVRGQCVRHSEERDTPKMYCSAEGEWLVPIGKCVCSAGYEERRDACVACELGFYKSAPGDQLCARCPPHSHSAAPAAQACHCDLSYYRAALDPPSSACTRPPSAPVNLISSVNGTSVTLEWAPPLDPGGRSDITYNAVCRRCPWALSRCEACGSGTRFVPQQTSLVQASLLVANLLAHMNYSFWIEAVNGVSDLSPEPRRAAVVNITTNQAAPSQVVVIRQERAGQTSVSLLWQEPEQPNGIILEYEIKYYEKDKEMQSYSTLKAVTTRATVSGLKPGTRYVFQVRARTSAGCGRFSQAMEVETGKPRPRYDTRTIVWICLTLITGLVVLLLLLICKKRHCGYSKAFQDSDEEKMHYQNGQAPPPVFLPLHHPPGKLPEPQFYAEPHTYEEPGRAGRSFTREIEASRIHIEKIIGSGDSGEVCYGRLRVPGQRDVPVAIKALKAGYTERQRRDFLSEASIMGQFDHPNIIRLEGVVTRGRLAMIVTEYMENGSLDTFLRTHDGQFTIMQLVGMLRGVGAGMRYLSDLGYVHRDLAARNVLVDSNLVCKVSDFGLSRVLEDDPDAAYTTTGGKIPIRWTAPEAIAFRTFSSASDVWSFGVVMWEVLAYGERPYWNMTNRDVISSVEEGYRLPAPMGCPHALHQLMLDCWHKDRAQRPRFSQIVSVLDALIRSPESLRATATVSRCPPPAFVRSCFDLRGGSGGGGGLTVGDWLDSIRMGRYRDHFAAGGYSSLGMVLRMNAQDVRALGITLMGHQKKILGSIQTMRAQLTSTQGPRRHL
Calcium/calmodulin-dependent protein kinase type 1D (Homo sapiens), sequence (Q8IU85 whole entry, looked up): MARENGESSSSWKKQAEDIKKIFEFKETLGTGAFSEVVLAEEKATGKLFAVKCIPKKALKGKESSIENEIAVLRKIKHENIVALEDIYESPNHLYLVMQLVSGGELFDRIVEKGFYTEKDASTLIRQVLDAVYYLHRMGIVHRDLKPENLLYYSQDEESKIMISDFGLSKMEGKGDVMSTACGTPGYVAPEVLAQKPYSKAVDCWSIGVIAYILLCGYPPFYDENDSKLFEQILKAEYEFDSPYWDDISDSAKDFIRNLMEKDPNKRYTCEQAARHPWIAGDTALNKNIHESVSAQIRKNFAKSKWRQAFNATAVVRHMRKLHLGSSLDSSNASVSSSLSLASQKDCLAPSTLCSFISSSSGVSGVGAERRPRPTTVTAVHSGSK
Mitogen-activated protein kinase 7 (Homo sapiens), sequence (Q13164 2-816 limits assumed): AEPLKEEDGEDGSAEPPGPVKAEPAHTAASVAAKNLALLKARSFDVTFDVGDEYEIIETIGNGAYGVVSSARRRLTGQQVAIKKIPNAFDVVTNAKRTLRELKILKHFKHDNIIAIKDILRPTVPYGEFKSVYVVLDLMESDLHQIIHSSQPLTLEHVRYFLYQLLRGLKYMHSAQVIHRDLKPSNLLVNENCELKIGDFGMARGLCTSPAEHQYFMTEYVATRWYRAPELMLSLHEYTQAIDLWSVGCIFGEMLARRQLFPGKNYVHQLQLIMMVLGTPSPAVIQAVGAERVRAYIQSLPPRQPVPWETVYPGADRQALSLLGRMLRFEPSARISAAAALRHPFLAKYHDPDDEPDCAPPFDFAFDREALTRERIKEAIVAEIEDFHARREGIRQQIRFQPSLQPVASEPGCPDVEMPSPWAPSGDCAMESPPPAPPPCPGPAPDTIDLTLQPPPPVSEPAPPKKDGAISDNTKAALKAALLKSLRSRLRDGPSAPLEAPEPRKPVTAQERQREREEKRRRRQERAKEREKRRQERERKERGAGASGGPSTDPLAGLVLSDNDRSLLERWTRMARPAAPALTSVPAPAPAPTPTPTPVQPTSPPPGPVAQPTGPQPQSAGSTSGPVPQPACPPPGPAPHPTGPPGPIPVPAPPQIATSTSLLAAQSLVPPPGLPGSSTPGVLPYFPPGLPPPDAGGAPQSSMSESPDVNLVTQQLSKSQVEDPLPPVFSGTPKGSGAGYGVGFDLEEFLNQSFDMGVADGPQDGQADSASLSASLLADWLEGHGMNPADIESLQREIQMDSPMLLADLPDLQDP
MAP kinase-interacting serine/threonine-protein kinase 1 (Homo sapiens), sequence (Q9BUB5 whole entry, looked up): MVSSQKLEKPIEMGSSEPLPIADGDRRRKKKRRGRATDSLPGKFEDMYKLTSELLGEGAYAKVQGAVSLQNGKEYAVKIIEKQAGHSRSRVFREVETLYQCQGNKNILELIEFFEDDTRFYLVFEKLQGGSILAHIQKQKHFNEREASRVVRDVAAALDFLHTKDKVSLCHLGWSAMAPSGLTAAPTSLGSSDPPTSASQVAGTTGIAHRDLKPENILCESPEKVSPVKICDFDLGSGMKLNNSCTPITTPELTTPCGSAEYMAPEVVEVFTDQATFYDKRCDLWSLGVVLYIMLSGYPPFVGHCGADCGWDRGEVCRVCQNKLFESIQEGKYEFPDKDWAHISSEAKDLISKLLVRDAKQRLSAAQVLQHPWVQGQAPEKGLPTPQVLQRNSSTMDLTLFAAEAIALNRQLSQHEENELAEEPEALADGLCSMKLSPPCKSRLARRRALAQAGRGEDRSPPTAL
Mitogen-activated protein kinase 8 (Homo sapiens), sequence (P45983 whole entry): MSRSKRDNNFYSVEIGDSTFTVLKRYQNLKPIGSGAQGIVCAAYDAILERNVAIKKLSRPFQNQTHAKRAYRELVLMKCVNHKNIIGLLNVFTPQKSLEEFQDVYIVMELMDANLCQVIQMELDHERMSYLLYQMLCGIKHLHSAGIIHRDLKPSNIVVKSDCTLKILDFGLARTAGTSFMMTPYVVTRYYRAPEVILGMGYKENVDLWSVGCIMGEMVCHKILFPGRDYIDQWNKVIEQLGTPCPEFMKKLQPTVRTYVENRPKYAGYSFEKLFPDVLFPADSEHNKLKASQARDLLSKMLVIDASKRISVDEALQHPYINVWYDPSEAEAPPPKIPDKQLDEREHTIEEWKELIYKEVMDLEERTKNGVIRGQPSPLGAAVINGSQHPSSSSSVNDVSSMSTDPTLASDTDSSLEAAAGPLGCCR
Glycogen synthase kinase-3 beta (Homo sapiens), sequence (P49841 whole entry, looked up): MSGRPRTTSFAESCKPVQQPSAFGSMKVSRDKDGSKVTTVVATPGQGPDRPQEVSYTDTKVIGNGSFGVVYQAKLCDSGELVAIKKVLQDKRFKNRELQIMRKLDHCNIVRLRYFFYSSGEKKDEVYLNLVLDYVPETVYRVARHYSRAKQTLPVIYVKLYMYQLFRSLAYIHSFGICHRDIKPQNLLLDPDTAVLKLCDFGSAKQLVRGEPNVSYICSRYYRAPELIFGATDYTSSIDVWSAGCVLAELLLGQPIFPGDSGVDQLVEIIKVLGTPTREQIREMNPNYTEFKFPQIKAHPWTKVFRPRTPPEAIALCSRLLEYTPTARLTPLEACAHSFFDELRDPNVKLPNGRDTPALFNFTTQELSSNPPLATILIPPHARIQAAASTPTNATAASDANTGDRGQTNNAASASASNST
5-hydroxytryptamine receptor 1D (Homo sapiens), sequence (P28221 whole entry): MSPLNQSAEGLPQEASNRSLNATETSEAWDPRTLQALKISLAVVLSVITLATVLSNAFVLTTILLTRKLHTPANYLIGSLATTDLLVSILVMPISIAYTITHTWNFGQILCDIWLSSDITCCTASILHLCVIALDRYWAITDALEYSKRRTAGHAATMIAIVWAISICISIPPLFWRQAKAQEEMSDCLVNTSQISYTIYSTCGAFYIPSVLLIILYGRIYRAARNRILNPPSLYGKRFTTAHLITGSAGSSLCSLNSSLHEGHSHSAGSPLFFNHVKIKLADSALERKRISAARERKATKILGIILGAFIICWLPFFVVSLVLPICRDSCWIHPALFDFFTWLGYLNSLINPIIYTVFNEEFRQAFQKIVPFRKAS

Structure (SMILES)	residual activity [1]	residual activity [2]	residual activity [3]	residual activity [4]	residual activity [5]	residual activity [6]	residual activity [7]	residual activity [8]	residual activity [9]	residual activity [10]	residual activity [11]	inhibition [12]	residual activity [13]	residual activity [14]	residual activity [15]	residual activity [16]	residual activity [17]	residual activity [18]	residual activity [19]	residual activity [20]	other results
CO[C@@H](C)c1c(Nc2ccc([C@H](N(C)C(=O)C3CCS(=O)(=O)CC3)C(F)(F)F)cc2)cnc2cc(Cl)nn12 [NVS-MALT1]	100%	50%	88%	95%	91%	86%	100%	75%	100%	74%	92%	9.7%	100%	83%	100%	93%	100%	89%	88%	100%	residual activity [21]: 80%; residual activity [22]: 99%; residual activity [23]: 98%; residual activity [24]: 87%; residual activity [25]: 86%; inhibition [26]: -2.45%; residual activity [27]: 99%; residual activity [28]: 79%; residual activity [29]: 92%; residual activity [30]: 100%; residual activity [31]: 100%; IC50 [32]: 3.4 nM (active); residual activity [33]: 91%; residual activity [34]: 100%
CO[C@@H](C)c1c(Nc2ccc([C@@H](N(C)C(=O)C3CCS(=O)(=O)CC3)C(F)(F)F)cc2)cnc2cc(Cl)nn12 [NVS-MALT1-C]	100%	50%	100%	100%	91%	82%	100%	63%	100%	83%	100%	4.72%	100%	100%	100%	99%	100%	95%	92%	94%	residual activity [21]: 98%; residual activity [22]: 100%; residual activity [23]: 100%; residual activity [24]: 79%; residual activity [25]: 69%; inhibition [26]: -3.07%; residual activity [27]: 92%; residual activity [28]: 85%; residual activity [29]: 100%; residual activity [30]: 100%; residual activity [31]: 100%; IC50 [32]: 1900 nM (active); residual activity [33]: 87%; residual activity [34]: 100%
